Structures can show the parent of a compound that is named as a salt.
Target: T1, Sodium Channel ENaC (Homo sapiens, UniProt P37088+P51168+P51170)
T1 construct: Human primary bronchial epithelial cells differentiated at air-liquid interface (ALI); host or cells: Human primary bronchial epithelial cells differentiated at air-liquid interface
T1 sequence (P37088 1-669): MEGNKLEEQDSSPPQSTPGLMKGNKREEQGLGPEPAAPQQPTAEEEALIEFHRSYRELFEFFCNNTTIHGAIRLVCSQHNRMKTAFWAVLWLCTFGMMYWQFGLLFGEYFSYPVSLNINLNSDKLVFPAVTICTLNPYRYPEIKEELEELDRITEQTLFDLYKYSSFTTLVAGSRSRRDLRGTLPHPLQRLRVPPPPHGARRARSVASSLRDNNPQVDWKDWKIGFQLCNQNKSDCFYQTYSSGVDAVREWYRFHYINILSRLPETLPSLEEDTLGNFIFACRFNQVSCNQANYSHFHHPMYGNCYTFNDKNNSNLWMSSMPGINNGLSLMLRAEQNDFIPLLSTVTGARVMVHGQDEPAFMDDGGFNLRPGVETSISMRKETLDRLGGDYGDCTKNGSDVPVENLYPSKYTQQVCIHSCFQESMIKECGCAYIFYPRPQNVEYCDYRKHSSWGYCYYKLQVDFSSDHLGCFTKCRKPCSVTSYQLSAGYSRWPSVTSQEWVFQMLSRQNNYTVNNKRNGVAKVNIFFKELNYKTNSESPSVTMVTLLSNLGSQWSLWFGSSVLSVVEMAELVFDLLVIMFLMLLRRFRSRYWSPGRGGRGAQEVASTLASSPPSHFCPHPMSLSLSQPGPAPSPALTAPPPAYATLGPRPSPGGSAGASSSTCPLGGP
T1 sequence (P51168 1-640): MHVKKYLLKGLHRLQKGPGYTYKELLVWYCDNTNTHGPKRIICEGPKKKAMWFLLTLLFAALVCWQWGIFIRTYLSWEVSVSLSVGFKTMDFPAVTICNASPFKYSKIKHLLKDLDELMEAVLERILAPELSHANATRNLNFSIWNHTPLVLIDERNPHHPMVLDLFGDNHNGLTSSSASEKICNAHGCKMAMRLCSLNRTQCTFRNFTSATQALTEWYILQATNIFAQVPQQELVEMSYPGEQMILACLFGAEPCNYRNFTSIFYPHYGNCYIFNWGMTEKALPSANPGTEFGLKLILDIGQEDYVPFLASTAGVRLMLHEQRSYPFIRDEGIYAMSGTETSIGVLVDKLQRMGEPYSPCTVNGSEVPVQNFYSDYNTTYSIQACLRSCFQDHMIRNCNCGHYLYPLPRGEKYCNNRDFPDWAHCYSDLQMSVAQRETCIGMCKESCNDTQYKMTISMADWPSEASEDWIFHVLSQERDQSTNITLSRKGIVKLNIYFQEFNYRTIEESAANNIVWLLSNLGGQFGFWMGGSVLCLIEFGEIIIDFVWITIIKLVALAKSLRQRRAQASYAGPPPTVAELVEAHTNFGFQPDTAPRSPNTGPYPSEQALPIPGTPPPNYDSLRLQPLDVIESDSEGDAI
T1 sequence (P51170 1-649): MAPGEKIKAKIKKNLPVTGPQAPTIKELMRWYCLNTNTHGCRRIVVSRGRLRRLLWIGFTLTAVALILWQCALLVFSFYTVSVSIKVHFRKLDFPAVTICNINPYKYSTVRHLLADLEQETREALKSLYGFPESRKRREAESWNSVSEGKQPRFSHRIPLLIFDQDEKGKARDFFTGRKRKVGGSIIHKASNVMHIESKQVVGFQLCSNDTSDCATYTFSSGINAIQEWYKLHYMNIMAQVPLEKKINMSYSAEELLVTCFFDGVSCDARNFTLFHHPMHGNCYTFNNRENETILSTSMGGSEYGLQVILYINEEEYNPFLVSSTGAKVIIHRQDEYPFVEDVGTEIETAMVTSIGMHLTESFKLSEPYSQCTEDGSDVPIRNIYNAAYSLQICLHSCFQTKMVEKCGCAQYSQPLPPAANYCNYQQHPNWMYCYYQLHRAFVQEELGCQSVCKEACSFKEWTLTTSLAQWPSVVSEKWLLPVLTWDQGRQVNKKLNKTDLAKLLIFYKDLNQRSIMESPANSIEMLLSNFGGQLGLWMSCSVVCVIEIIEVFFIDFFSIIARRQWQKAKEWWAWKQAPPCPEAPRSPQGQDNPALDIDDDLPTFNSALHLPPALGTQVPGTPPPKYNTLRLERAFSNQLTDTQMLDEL
Assay: Sodium Channel ENaC Ussing Chamber Test (short circuit current)
Type: cell-based
Conditions: human primary bronchial epithelial cells at air-liquid interface; inhibition of short circuit current; compounds added to the apical side
Protocol: Sodium Channel ENaC Ussing Chamber Test
Human primary bronchial epithelial cells differentiated at air-liquid interface (ALI) on snapwell permeable supports (MatTek Corporation, MA, USA, cat no AIR-100-SNP) were maintained at ALI culture in a humidified incubator at 37° C. and 5% CO2. Basolateral medium (MatTek Corporation, MA, USA cat no AIR-100-MM-ASY) was changed every second day. Mucus or liquid formed on the apical side was gently aspirated every second day to maintain viability and performance of the cells.
The transepithelial voltage between the luminal/apical and basolateral membrane were measured in the ussing chamber consisted of vertical, in-house manufactured ussing chambers, DVC-1000 V/C clamps with preamplifiers (World Precision Instruments), electrode kits (EK1, World Precision Instruments), Power Lab with Chart5 software, water bath with external circulation and carbogen gas distribution and regulation system. Electrodes used in the set up were casted manually using 4% agarose in 0.9% sterile NaCl according to the manufacturer's recommendation.
The ussing chambers were assembled with an empty snapwell membrane (Costar 3407) and electrodes contained in Kreb's buffer (SIGMA-ALDRICH cat no K3753) for one hour at 37° C. in presence of 95% oxygen and 5% carbon dioxide. After this equilibration step the system was compensated for fluid resistance and input offset.
The equilibrated chambers were reassembled with a snapwell containing ALI cells and after 20 minutes stabilisation cumulative doses of the compounds were added to the apical side of the membrane. After the final dose 10 μM Benzamil was added to reach maximum.
All test compounds, including the reference compound, were diluted from 10 mM stocks in 100% DMSO and added to opaque 96-well plates (Greiner, Cat No. 651201). Dilution series of 12 doses were prepared in DMSO, starting with 3 μM followed by 10 times dilution steps.
Chart5 for Windows software was used to measure the value of the short circuit current after each compound addition. The data was transferred into Excel and analysed using IDBS XLfit® 5.2 (ID Business Solutions Ltd). The molar concentration of test or reference compound producing 50% inhibition (curve IC50) was derived by fitting data to a 4-parameter logistic function of the form: y=(A+((B−A)/(1+(((10^C)/x)^D))))
A The bottom plateau of the curve, i.e. the final minimum y value
B The top of the plateau of the curve i.e. the final maximum y value
C The log10 x value at a y value of 50%.

| Structure (SMILES) | IC50 [nM] |
| --- | --- |
| CCCCCCN(CCNC(=O)N1CCC(CNC[C@H](CNC(=O)c2nc(Cl)c(N)nc2N)Cc2ccccc2C)CC1)C[C@H](O)[C@@H](O)[C@H](O)[C@H](O)CO [Example 3, 3,5-diamino-6-chloro-N—((R)-3-((1-(2-(hexyl((2S,3R,4R,5R)-2,3,4,5,6-pentahydroxyhexyl)amino)ethylcarbamoyl)piperidin-4-yl)methylamino)-2-(2-methylbenzyl)propyl)pyrazine-2-carboxamide] | 0.0794 |
| Cc1ccccc1C[C@H](CNCC1CCN(C(=O)CCNC[C@H](O)[C@@H](O)[C@H](O)[C@H](O)CO)CC1)CNC(=O)c1nc(Cl)c(N)nc1N [Example 7, 3,5-diamino-6-chloro-N—((R)-2-(2-methylbenzyl)-3-((1-(3-((2S,3R,4R,5R)-2,3,4,5,6-pentahydroxyhexylamino)propanoyl)piperidin-4-yl)methylamino)propyl)pyrazine-2-carboxamide] | 1.26 |
| CCCCCCN(CCC(=O)N1CCC(CNC[C@H](CNC(=O)c2nc(Cl)c(N)nc2N)Cc2ccccc2C)CC1)C[C@H](O)[C@@H](O)[C@H](O)CO [Example 5, 3,5-diamino-6-chloro-N—((R)-3-((1-(3-(hexyl((2S,3R,4R)-2,3,4,5-tetrahydroxypentyl)amino)propanoyl)piperidin-4-yl)methylamino)-2-(2-methylbenzyl)propyl)pyrazine-2-carboxamide] | 1 |
| CCCCCCN(CCNC(=O)c1ccc(CCNC[C@H](CNC(=O)c2nc(Cl)c(N)nc2N)Cc2ccccc2C)cc1)C[C@H](O)[C@@H](O)[C@H](O)CO [Example 13, 3,5-diamino-6-chloro-N—((R)-3-((4-((2-(hexyl((2S,3R,4R)-2,3,4,5-tetrahydroxypentyl)amino)ethyl)carbamoyl)phenethyl)amino)-2-(2-methylbenzyl)propyl)pyrazine-2-carboxamide Dihydrochloride] | 0.0794 |
| CCCCCCN(CCNC(=O)Oc1ccc(CNC[C@H](CNC(=O)c2nc(Cl)c(N)nc2N)Cc2ccccc2C)cc1)C[C@H](O)[C@@H](O)[C@H](O)[C@H](O)CO [Example 11, 4-(((R)-3-(3,5-diamino-6-chloropyrazine-2-carboxamido)-2-(2-methylbenzyl)propylamino)methyl)phenyl 2-(hexyl((2S,3R,4R,5R)-2,3,4,5,6-pentahydroxyhexyl)amino)ethylcarbamate] | 1.58 |
| CCCCCCN(CCC(=O)N1CCC(CNC[C@H](CNC(=O)c2nc(Cl)c(N)nc2N)Cc2ccccc2C)CC1)C[C@H](O)[C@@H](O)[C@H](O)[C@H](O)CO [Example 4, 3,5-diamino-6-chloro-N—((R)-3-((1-(3-(hexyl((2S,3R,4R,5R)-2,3,4,5,6-pentahydroxyhexyl)amino)propanoyl)piperidin-4-yl)methylamino)-2-(2-methylbenzyl)propyl)pyrazine-2-carboxamide] | 0.631 |
| CCCCCCN(CCNC(=O)c1ccc(CNC[C@H](CNC(=O)c2nc(Cl)c(N)nc2N)Cc2ccccc2C)cc1)C[C@@H](O)[C@@H](O)[C@H](O)[C@H](O)CO [Example 9, 3,5-diamino-6-chloro-N—((R)-3-((4-((2-(hexyl((2R,3R,4R,5R)-2,3,4,5,6-pentahydroxyhexyl)amino)ethyl)carbamoyl)benzyl)amino)-2-(2-methylbenzyl)propyl)pyrazine-2-carboxamide Dihydrochloride] | 2.51 |
| CCCCCCN(CCNC(=O)c1ccc(CNC[C@H](CNC(=O)c2nc(Cl)c(N)nc2N)Cc2ccccc2C)cc1)C[C@H](O)[C@@H](O)[C@H](O)[C@H](O)CO [Example 10, 3,5-diamino-6-chloro-N—((R)-3-((4-((2-(hexyl((2S,3R,4R,5R)-2,3,4,5,6-pentahydroxyhexyl)amino)ethyl)carbamoyl)benzyl)amino)-2-(2-methylbenzyl)propyl)pyrazine-2-carboxamide] | 2.51 |

— patent US10336725B2, “Chemical compounds” (AstraZeneca AB, priority 2014, dated 2019)
